Experimental data reported in patent publication US11458149B1, “TEAD inhibitors and uses thereof” (Ikena Oncology, Inc., priority 2019, dated 2022).
Read-outs that look alike come from different tables or passages of the source.

How the values were obtained:
[1] = Mouse pharmacokinetics study; format: in vivo; conditions: BALB/c mice, 10 mg/kg oral gavage, 5% DMS/95% PEG400, plasma
Protocol: Formulated compounds were administered intravenously or orally via gavage to BALB/c mice. Typically, at 0.167, 0.5, 1, 2, 4, 6, 12, and 24 hours post-dose, blood was collected and processed to plasma by centrifugation and stored at −80° C. until analysis. Internal standard was added to each sample prior to protein precipitation with acetonitrile or TCA. The precipitates were filtered through a filter plate and the samples were analyzed by LC/MS/MS. A standard curve was prepared in plasma from typically from 1.0 ng/mL to 3000 ng/mL and processed in the same manner as the samples. Sample analysis was typically performed on a suitable LC/MS/MS system fitted with an analytical UPLC column and compounds eluted from the analytical column with a gradient from 30-95% 0.1% formic acid (v/v) in ACN: 0.1% formic acid (v/v) in water. Mass spectrometric detection of test compound and the internal standard was performed by […] in positive mode. The pharmacokinetics of each compound were analyzed by Phoenix WinNonlin software (Pharsight, St. Louis, Mo.) via noncompartmental analysis. FIG. 4 depicts pharmacokinetic (PK) properties of isomer 1 of compound I-186 following dosing in BALB/c mice.

H28 = test: Anti-proliferation assay in H28 cells; format: cell-based; conditions: Homo sapiens, NCI-H28
Protocol: (§1) Certain compounds were tested in TEAD reporter assay, and in H226 and H28. A: EC50<0.1 uM; B: 0.1 uM≤EC50≤0.5 uM; C: EC50>0.5 uM.
(§2) Individual cell lines were grown in medium according to supplier instructions and seeded into 96-well plates at a density that ensured logarithmic growth over 72 hours. TEAD inhibitor compounds were administered to cells at a top concentration of 10 μm and subsequently a 10 point 3-fold serial dilution was conducted. After 72 hours, proliferation was quantified using Cell TITERGLO™ (Promega, Inc.) and compared to vehicle control. IC50 and EC50 values were generated using XLFit curve fitting software.
The effect of isomer 2 of compound I-12 on cell proliferation is dependent on the presence of a Hippo/NF2 mutation. No effect is seen by isomer 2 of compound I-12 on the NF2 wild-type H28 cell line.

TEAD = TEAD reporter assay (Hippo Pathway TEAD Reporter - MCF7 cell line, luciferase); format: cell-based, human; conditions: Homo sapiens, MCF7, TEAD Reporter - MCF7 cells; read-out: TEAD Reporter Assay EC50
Source text: TEAD inhibition can be assayed using Hippo Pathway TEAD Reporter—MCF7 Cell Line (BPS Bioscience, Catalog #: 60618).
The TEAD Reporter—MCF7 cell line contains the firefly luciferase gene under the control of TEAD responsive elements stably integrated into the human breast cancer cell line, MCF7. Inside the cells, basal unphosphorylated YAP/TAZ remains in the nucleus and induces the constitutive expression of luciferase reporter. The cell line is validated for the inhibition of the expression of luciferase reporter by the activators of the Hippo pathway.
• 1) Harvest TEAD Reporter—MCF7 cells from culture in growth medium and seed cells at a density of 35,000 cells per well into white clear-bottom 96-well microplate in 45 μl of assay medium. • 2) Incubate cells at 37° C. in a CO2 incubator for overnight. • 3) Dilute the activators (H2O2 or okadaic acid) stock in assay medium. Add 5 μl of diluted activators to the wells. The final concentration of DMSO in assay medium is 0.1%. • 4) Add 5 μl of assay medium with same concentration of DMSO without activator to control wells. • 5) Add 50 μl of assay medium with DMSO to cell-free control wells (for determining background luminescence). • 6) Set up each treatment in at least triplicate. • 7) Incubate cells at 37° C. in a CO2 incubator for 5-6 hours. • 8) Perform luciferase assay using the ONE-Step™ Luciferase Assay System following the protocol provided: Add 100 μl of ONE-Step™ Luciferase reagent per well and rock at room temperature for ˜15 minutes. Measure luminescence using a luminometer. • 9) Data Analysis: Obtain the background-subtracted luminescence by subtracting the average background luminescence (cell-free control wells) from the luminescence reading of all wells.
as §1

H226 = test: Anti-proliferation assay in H226 cells; format: cell-based, human; conditions: Homo sapiens, NCI-H226, H226 cells; read-out: H226 EC50
Protocol: as §1, §2

Row | SMILES | AUC(0-t) ([1]; mouse) | Cmax ([1]; mouse, read-out: Cmax) | EC50 (TEAD) | EC50 (H226) | AUC0-last [1] | Cmax [1] | EC50 (H28)
1 | C=CC(=O)NC1CCN(Cc2ccc(C(F)(F)F)cc2)c2ccccc21 (stereo in doubt) [Compound I-203, N-[(4R)-1-[[4-(Trifluoromethyl)phenyl]methyl]-3,4-dihydro-2H-quinolin-4-yl]prop-2-enamide] | 0.275 µg·h/mL | 0.0633 µg/mL | – | – | – | – | –
2 | C=CC(=O)Nc1ccc(C)c(Nc2ccc(Cl)cc2)c1 [Compound I-27, N-[3-(4-Chloroanilino)-4-methyl-phenyl]prop-2-enamide] | – | – | < 0.1 µM | < 0.1 µM | – | – | > 0.5 µM
3 | C=CC(=O)Nc1cccc(C)c1Oc1ccc(Cl)cc1 [Compound I-28, N-[2-(4-Chlorophenoxy)-3-methyl-phenyl]prop-2-enamide] | – | – | > 0.5 µM | > 0.5 µM | – | – | > 0.5 µM
4 | C=CC(=O)Nc1cc(Oc2cccc(C(F)(F)F)c2)c2ccccc2c1 [Compound I-29, N-[4-[3-(Trifluoromethyl)phenoxy]-2-naphthyl]prop-2-enamide] | – | – | < 0.1 µM | 0.1 to 0.5 µM | – | – | > 0.5 µM
5 | C=CC(=O)Nc1ccc(C)c(Oc2cncc(C(F)(F)F)c2)c1 [Compound I-30, N-[4-Methyl-3-[[5-(trifluoromethyl)-3-pyridyl]oxy]phenyl]prop-2-enamide] | – | – | < 0.1 µM | < 0.1 µM | – | – | > 0.5 µM
6 | C=CC(=O)Nc1ccc(C)c(Oc2cc(C(F)(F)F)ccn2)c1 [Compound I-31, N-[4-methyl-3-[[4-(trifluoromethyl)-2-pyridyl]oxy]phenyl]prop-2-enamide] | – | – | < 0.1 µM | < 0.1 µM | – | – | > 0.5 µM
7 | C=CC(=O)Nc1ccc(C)c(Nc2cccc(C(F)(F)F)c2)c1 [Compound I-33, N-[4-Methyl-3-[3-(trifluoromethyl)anilino]phenyl]prop-2-enamide] | – | – | < 0.1 µM | < 0.1 µM | – | – | > 0.5 µM
8 | C=CC(=O)NC1CCN([C@H](C)c2ccc(C(F)(F)F)cc2)CC1 [Compound I-62, N-[1-[(1R)-1-[4-(Trifluoromethyl)phenyl]ethyl]-4-piperidyl]prop-2-enamide] | 0.368 µg·h/mL | 0.345 µg/mL | < 0.1 µM | < 0.1 µM | – | – | –
9 | C=CC(=O)NC1[C@H]2CN(Cc3ccc(C(F)(F)F)cc3)C[C@@H]12 (stereo partly drawn) [Compound I-69, N-[(1R,5S)-3-[[4-(Trifluoromethyl)phenyl]methyl]-3-azabicyclo[3.1.0]hexan-6-yl]prop-2-enamide] | 1.24 µg·h/mL | 1.16 µg/mL | < 0.1 µM | < 0.1 µM | – | – | –
10 | C=CC(=O)N[C@H]1[C@@H]2CCN(Cc3ccc(C(F)(F)F)cc3)C[C@@H]21 [Compound I-208, N-[(1R,6R,7S)-4-[[4-(trifluoromethyl)phenyl]methyl]-4-azabicyclo[4.1.0]heptan-7-yl]prop-2-enamide] | 0.226 µg·h/mL | 0.318 µg/mL | – | – | – | – | –
11 | C=CC(=O)N1CC[C@@H](NCc2ccc(C(F)(F)F)cc2)C1 [Compound I-211, 1-[(3R)-3-[[4-(trifluoromethyl)phenyl]methylamino]pyrrolidin-1-yl]prop-2-en-1-one] | 1.26 µg·h/mL | 1.25 µg/mL | – | – | – | – | –

More lines, main results first:

Row | AUC(0-t) ([1]; mouse) | Cmax ([1]; mouse, read-out: Cmax) | EC50 (TEAD) | EC50 (H226) | AUC0-last [1] | Cmax [1] | SMILES | EC50 (H28)
12 | – | – | > 0.5 µM | > 0.5 µM | – | – | C=CC(=O)NC1CCN(Cc2ccc(OC(F)(F)F)cc2)CC1 [Compound I-388] | –
13 | – | – | > 0.5 µM | > 0.5 µM | – | – | C=CC(=O)NC1CCN(Cc2ccc(-c3ccccc3)cc2)CC1 [Compound I-389] | –
14 | – | – | > 0.5 µM | > 0.5 µM | – | – | C=CC(=O)NC1CCN(Cc2ccc(C#N)cc2)CC1 [Compound I-393] | –
15 | – | – | 0.1 to 0.5 µM | 0.1 to 0.5 µM | – | – | C=CC(=O)NC1CCN(Cc2ccc(Cl)cc2)CC1 [Compound I-394] | –
16 | – | – | > 0.5 µM | > 0.5 µM | – | – | C=CC(=O)NC1CCN(Cc2ccc(C(C)(C)C)cc2)CC1 [Compound I-395] | –
17 | – | – | > 0.5 µM | 0.1 to 0.5 µM | – | – | C=CC(=O)NC1CCN(Cc2ccc(C3CC3)cc2)CC1 [Compound I-397] | –
18 | – | – | – | – | 0.397 µg·h/mL | 0.246 µg/mL | C=CC(=O)Nc1ccc(C)c(Oc2ccc(Cl)cc2)c1 [Compound P-5] | –
